Source: patent US20230357240A1, “NOVEL N-HETEROCYCLIC BET BROMODOMAIN INHIBITOR, AND PREPARATION METHOD THEREOF AND MEDICAL USE THEREOF” (Chengdu Easton Biopharmaceuticals Co., Ltd., priority 2020, published 2023)
Where two headings read alike, the source gives them in different places.

How the values were obtained:
[1] = Pharmacokinetic test in SD rats (plasma drug concentration by LC/MS/MS); assay type: in vivo; conditions: rat, 2 mg/kg; for AUC(0-t): read-out: Area under the curve AUClast; for half-life: read-out: Half life T1/2 (converted); for Cmax: read-out: Peak concentration Cmax; for MRT: read-out: Retention time MRT; for Tmax: read-out: Time to peak Tmax
Procedure: EXAMPLE 10 Pharmacokinetic Test of the Compound of the Present Application
SD rats were used as test animals. After gavage administration or tail vein injection of the compound of the present application to the rats, plasma drug concentrations were measured by the LC/MS/MS method at different moments, and pharmacokinetic features of the compound of the present application in the rats was studied.
Source of SD rats: Chengdu Dashuo Experimental Animal Co., Ltd.
Method of administration: single gavage administration and single tail vein injection
Dosage and concentration: 2 mg/kg rat body weight, 0.5 mg/mL
Formulation: 20% β-cyclodextrin solution
Sampling points: 5 min, 15 min, 30 min, 45 min, 1 h, 1.5 h, 2 h, 4 h, 5 h, 6 h, 7 h, 8 h, 9 h and 24 h
Standard curve preparation and sample treatment: 10 mg of the sample to be tested was accurately weighed and added into 1 mL of DMSO for dissolution, and the mixture was used as a stock solution. The stock solution was diluted with 50% (v/v) methanol aqueous solution to prepare standard working solutions having a concentration of 10, 20, 50, 100, 200, 500, 1000 and 2000 ng/mL, respectively. 5 μL of each of the standard working solutions was added to 45 μL of blank rat plasma to prepare standard samples containing the analyte at concentrations of 1.00, 2.00, 5.00, 10.00, 20.00, 50.00, 100.00 and 200.00 ng/mL, 200 μL of methanol (containing internal standard substance: 5 ng/mL memantine hydrochloride) was added to each standard sample, the standard samples were oscillated for 3 minutes and centrifuged at 12000 rpm at 4° C. for 10 minutes, and […] of the supernatant was collected for LC-MS/MS analysis. The test results were calculated by Analyst® software.
Preparation of quality control solution and sample treatment: 10 mg of the sample to be tested was accurately weighed and added into 1 mL of DMSO for dissolution, and the mixture was used as a stock solution. The stock solution was diluted with 50% (v/v) methanol aqueous solution to prepare quality control working solutions having a concentration of 30, 600 and 1600 ng/mL, respectively. 5 μL of each of the quality control working solutions was added to 45 μL of blank rat plasma to prepare quality control samples containing the analyte at concentrations of 3.00, 60.00 and 160.00 ng/mL, 200 μL of methanol (containing internal standard substance: 5 ng/mL memantine hydrochloride) was added to each standard sample, the standard samples were oscillated for 3 minutes and centrifuged at 12000 rpm at 4° C. for 10 minutes, and […] of the supernatant was collected for LC-MS/MS analysis. The test results were calculated by Analyst® software.

[2] = system: MV4-11 xenograft tumor; assay: In vivo efficacy test, MV4-11 xenograft tumor model in mice; conditions: NOD-SCID mice, 5 mg/kg qd gavage, 14 days
From the text: EXAMPLE 11 In Vivo Efficacy Test of the Compound of the Present Application
Objective: To test the inhibitory effect of the test compound on the growth of xenograft tumor in nude mice with MV4-11 leukemia.
Method: NOD-SCID mice were subcutaneously inoculated with MV4-11 cells to establish an MV4-11 xenograft tumor model in mice. 16 days after inoculation (d16), average tumor volume was about 210 mm^3. According to the tumor volumes, the tumor-bearing mice were grouped in a random block method, with 6 mice in each group. The groups included a solvent control group, an ABBV-744 control group, and a test sample group, the dosage was 5 mg/kg mouse body weight, and the dose volume was 10 mL/kg mouse body weight, once a day. Each group was gavage administered for 14 consecutive days, and the solvent control group was gavage administered with a blank solvent (20% […] solution). Tumor volumes were measured twice weekly after administration of the test drug. The animals were euthanized after the test.

[3] = biological target: T1, hERG (Homo sapiens, UniProt Q12809); assay: hERG inhibition test, whole-cell patch clamp in HEK293 cells stably expressing the hERG ion channel; assay type: cell-based; conditions: human, HEK293 cells stably expressing the hERG ion channel
T1 construct: expressed in transfected cells; host or cells: HEK293 cells stably expressing hERG
Procedure: (§1) An hERG current was recorded by the whole-cell patch clamp technique. A suspension of HEK293 cells stably expressing the hERG ion channel was added to a 35 mm culture dish, and the culture dish was put on a stage of an inverted microscope. […] The pulse program was repeated every 15 seconds throughout the whole test. After the current became stable, the administration method of continuous extracellular perfusion from low concentration to high concentration was used, and the perfusion started from low concentration and continued until the drug effect was stable, and then the perfusion of the next concentration was performed.
(§2) After the test, stimulus release and signal acquisition were carried out through PatchMaster software. Graphpad Prism 8.0 was used for further data analysis and curve fitting. Effects of each compound at different concentrations were represented with an inhibition rate of the tail current. Inhibition rate=(peak tail current before administration—peak tail current after administration)/peak tail current before administration x 100%. Half-maximal inhibitory concentration IC50 of the test samples was obtained by the fitting analysis with Hill equation.

[4] = biological target: T2, hERG ion channel (Homo sapiens, UniProt Q12809); assay: as above; assay type: cell-based; conditions: tail current, Hill equation fit
T2 construct: expressed in transfected cells; host or cells: HEK293 cells stably expressing hERG
Procedure: as §1, §2

[5] = read-out: Average hERG inhibition rate
[6] = read-out: hERG Inhibition rate, Cell 1
[7] = read-out: hERG Inhibition rate, Cell 2

T1 sequence (Q12809 whole entry): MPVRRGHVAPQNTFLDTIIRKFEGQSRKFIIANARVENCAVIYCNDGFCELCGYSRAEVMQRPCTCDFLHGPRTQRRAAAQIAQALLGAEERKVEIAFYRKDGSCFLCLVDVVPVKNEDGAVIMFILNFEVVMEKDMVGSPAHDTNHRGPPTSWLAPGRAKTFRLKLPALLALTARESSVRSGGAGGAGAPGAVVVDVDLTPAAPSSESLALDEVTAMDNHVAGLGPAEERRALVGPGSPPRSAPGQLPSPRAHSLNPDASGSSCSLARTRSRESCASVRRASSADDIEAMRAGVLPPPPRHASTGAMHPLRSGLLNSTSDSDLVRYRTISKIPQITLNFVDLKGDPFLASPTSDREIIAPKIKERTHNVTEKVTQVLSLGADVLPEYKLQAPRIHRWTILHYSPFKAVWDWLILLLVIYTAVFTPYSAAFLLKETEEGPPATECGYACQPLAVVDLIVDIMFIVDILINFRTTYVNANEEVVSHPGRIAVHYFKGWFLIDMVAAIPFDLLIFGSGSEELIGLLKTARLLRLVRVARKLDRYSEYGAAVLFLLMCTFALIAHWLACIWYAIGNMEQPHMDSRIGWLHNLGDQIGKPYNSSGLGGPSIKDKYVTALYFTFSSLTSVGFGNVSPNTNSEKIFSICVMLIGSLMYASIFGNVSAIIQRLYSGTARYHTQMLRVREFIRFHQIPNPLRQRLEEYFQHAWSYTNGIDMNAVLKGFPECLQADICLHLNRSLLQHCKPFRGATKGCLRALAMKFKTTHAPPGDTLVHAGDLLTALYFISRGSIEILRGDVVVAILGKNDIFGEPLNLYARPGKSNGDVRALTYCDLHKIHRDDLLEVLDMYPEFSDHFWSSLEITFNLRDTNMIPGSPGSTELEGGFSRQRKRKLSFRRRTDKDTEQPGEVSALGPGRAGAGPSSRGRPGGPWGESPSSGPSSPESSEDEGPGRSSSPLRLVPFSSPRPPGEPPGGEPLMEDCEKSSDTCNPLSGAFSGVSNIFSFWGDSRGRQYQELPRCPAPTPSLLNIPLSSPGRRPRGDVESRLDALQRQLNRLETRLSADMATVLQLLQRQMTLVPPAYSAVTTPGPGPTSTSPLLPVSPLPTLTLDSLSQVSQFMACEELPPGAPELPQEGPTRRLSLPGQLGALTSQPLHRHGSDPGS
T2 sequence (Q12809 whole entry): as above

- AUC(0-t) ([1]; iv, tail vein injection): 327 ng·h/mL
- half-life ([1]; iv, tail vein injection): 61.8 min
- Cmax ([1]; iv, tail vein injection): 276 ng/mL
- MRT ([1]; iv, tail vein injection): 87 min
- Tmax ([1]; iv, tail vein injection): 4.8 min
- AUC(0-t) ([1]; po, gavage): 250 ng·h/mL
- half-life ([1]; po, gavage): 49.8 min
- Cmax ([1]; po, gavage): 143 ng/mL
- MRT ([1]; po, gavage): 82.2 min
- Tmax ([1]; po, gavage): 17.4 min
Compound: CCNC(=O)c1cc2c(-c3sc(C(C)(C)O)cc3N3CCc4ccccc43)cn(C)c(=O)c2[nH]1 [Compound 1, N-ethyl-4-(5-(2-hydroxypropyl-2-yl)-3-(indolin-1-yl)thiophen-2-yl)-6-methyl-7-oxo-6,7-dihydro-1H-pyrrolo[2,3-c]pyridine-2-carboxamide]
- Relative tumor proliferation rate T/C [2]: 33.15%
- inhibition at 0.37 µM [3, 5]: 3.89%
- inhibition at 0.37 µM [3, 6]: 0.98%
- inhibition at 0.37 µM [3, 7]: 6.79%
- inhibition at 1.11 µM [3, 5]: 4.35%
- inhibition at 1.11 µM [3, 6]: -0.28%
- inhibition at 1.11 µM [3, 7]: 8.97%
- inhibition at 3.33 µM [3, 5]: 10.1%
- inhibition at 3.33 µM [3, 6]: 2.97%
- inhibition at 3.33 µM [3, 7]: 17.3%
- inhibition at 10 µM [3, 5]: 21.6%
- inhibition at 10 µM [3, 6]: 14.6%
- inhibition at 10 µM [3, 7]: 28.6%
- inhibition at 30 µM [3, 5]: 56.3%
- inhibition at 30 µM [3, 6]: 54.3%
- inhibition at 30 µM [3, 7]: 58.3%
- IC50 [4]: 26.8 µM
